In the supplement of paper PMC10307832 one finds relative viability data, which are given here for one cell line.

Holding throughout (assay): relative viability (nuclei count vs DMSO), 5 days (fraction); higher = more cells survive
Compound in test [1]: Cc1nc(C(=O)NCC(=O)O)c(O)c2ccc(Oc3ccccc3)cc12 [FG-4592] + CS(=O)(=O)N1CCN(Cc2cc3nc(-c4cccc5[nH]ncc45)nc(N4CCOCC4)c3s2)CC1 [Pictilisib] (partner 1 µM)
In short, it runs like this:
(§1)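 For relative viability, nuclei counts in treated wells were divided by those in vehicle wells. Lung cancer cell lines had been pin-tool dosed in 1536-well plates the day after seeding and cultured for 5 days, then fixed and stained in one step (final 0.05% Triton X-100, 1% formaldehyde, 1 ug/ml Hoechst) and imaged at 4×. Doses were one drug alone or a fixed anchor-drug dose plus five library-drug doses (not always all listed) in √10 steps, and values are duplicate-plate medians.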

Compound in test [2]: Cc1nc(C(=O)NCC(=O)O)c(O)c2ccc(Oc3ccccc3)cc12 [FG-4592] + Nc1nc2[nH]cc(CCc3ccc(C(=O)N[C@@H](CCC(=O)O)C(=O)O)cc3)c2c(=O)[nH]1 [Pemetrexed] (partner 0.2 µM)
In short, it runs like this: as §1

Compound in test [3]: Cc1nc(C(=O)NCC(=O)O)c(O)c2ccc(Oc3ccccc3)cc12 [FG-4592] + CC1(C)CCC(c2ccc(Cl)cc2)=C(CN2CCN(c3ccc(C(=O)NS(=O)(=O)c4ccc(N[C@H](CCN5CCOCC5)CSc5ccccc5)c(S(=O)(=O)C(F)(F)F)c4)cc3)CC2)C1 [Navitoclax] (partner 0.5 µM)
A digest of the protocol: as §1

Compound in test [4]: CC1=CC(=C(N1C2=CC=C(C=C2)Cl)C)C(=O)CN3CCCCC3 [IU1-47] + CS(=O)(=O)CCNCc1ccc(-c2ccc3ncnc(Nc4ccc(OCc5cccc(F)c5)c(Cl)c4)c3c2)o1 [Lapatinib] (partner 2 µM)
In short, it runs like this:
as §1

UMC-11: the relative viability in test [1] (first compound 0.08 µM) was 0.722; in test [1] (first compound 0.253 µM), 0.714; in test [1] (first compound 0.8 µM), 0.599; in test [1] (first compound 2.53 µM) it was 0.74; in test [1] (first compound 8 µM) it was 0.7; in test [2] (first compound 0.08 µM) it was 0.738. Besides, the relative viability stood at 0.867 in test [2] (first compound 0.253 µM); 0.843 in test [2] (first compound 0.8 µM); 0.791 in test [2] (first compound 2.53 µM); 0.688 in test [2] (first compound 8 µM); 0.391 in test [3] (first compound 0.08 µM); 0.321 in test [3] (first compound 0.253 µM). Also, the relative viability in test [3] (first compound 0.8 µM) is 0.29; in test [3] (first compound 2.53 µM) it was 0.312; in test [3] (first compound 8 µM), 0.274; in test [4] (first compound 0.08 µM) it was 0.887; in test [4] (first compound 0.253 µM) it was 0.877; in test [4] (first compound 0.8 µM), 1.03. For the same cell line, the relative viability in test [4] (first compound 2.53 µM) amounted to 1.24; in test [4] (first compound 8 µM), 0.876.
